The numbers were not newly measured in PMC6376154 (International Journal for Parasitology: Drugs and Drug …, 2019), which cites them from elsewhere.

pEC50: −log10 of the molar value. Where two headings read alike, the source gives them in different places.

The data set has as its system P. falciparum 3D7 asexual blood stage. The conditions noted are these: cited from earlier work.
Where [1] appears, read: MMV Malaria Box data sheet, ref MMV data sheets.
[2] abbreviates: MMV Malaria Box data sheet, ref MMV data sheets, read-out: EC50_nM.
The mark [3] stands for this setting: source GNF, ref ChEMBL_NTD, read-out: CHEMBL EC50.
Setting [4] is: ChEMBL-NTD value per source (GNF, GSK, StJude), several values in a cell follow the order of the sources, read-out: CHEMBL EC50.
Where [5] appears, read: MMV Malaria Box sheet, ref MMV data sheets.
The mark [6] stands for this setting: MMV Malaria Box sheet, ref MMV data sheets, read-out: EC50_nM.
[7] abbreviates: source GSK, ref ChEMBL_NTD, read-out: CHEMBL EC50.
Setting [8] is: MMV Malaria Box data sheet (supplement mmc2.xls), ref MMV data sheet.
[9] abbreviates: MMV Malaria Box data sheet (supplement mmc2.xls), ref MMV data sheet, read-out: EC50_nM.
The mark [10] stands for this setting: value(s) per source (GSK, GNF, StJude), separated by semicolon, ref ChEMBL-NTD, read-out: CHEMBL EC50.
The mark [11] stands for this setting: source StJude, ref ChEMBL_NTD, read-out: CHEMBL EC50.

`c1ccc(Cn2c(N=Nc3c(Nc4ccccc4)ccc4ccccc34)nc3ccccc32)cc1` [MMV666023]: the “percent_inh @ 5 uM” value under setting [1] is listed as 96%. The pEC50 is 7.43 under setting [2] and 5.56 under setting [3].
Consider `OC(Cn1nnc2ccccc21)Cn1c2ccc(Br)cc2c2cc(Br)ccc21` (centres unmarked) [MMV666025], for which the pEC50 under setting [4] was 5.47.
As to `COc1ccc(-c2cc3c(nn2)-c2ccccc2C3=O)cc1` [MMV666026], the pEC50 under setting [4] was 5.42.
Consider `COc1ccc(C(=O)NC(c2ccc(Cl)cc2Cl)c2cc(Cl)c3cccnc3c2O)cc1` (centres unmarked) [MMV666054], for which, under setting [5], the “percent_inh @ 5 uM” value was 96%. The pEC50 by setting is: under setting [6], 6.29; under setting [7], 6.30.
For the compound `O=C(Nc1ccc(Cl)cc1C(=O)Nc1ccncc1)c1ccc(Cl)cc1Cl` [MMV666057], under setting [1], the “percent_inh @ 5 uM” value was 94%. Further, under setting [7], the pEC50 is 6.21.
For `COc1ccc(CN2CCCC(C(=O)c3ccc(C(F)(F)F)cc3)C2)c(O)c1` (centres unmarked) [MMV666060], the pEC50 under setting [4] is 6.07.
With `COc1cccc(O)c1CN1CCC2(CCCN(Cc3ccc(F)cc3)C2)C1` (centres unmarked) [MMV666061], the “percent_inh @ 5 uM” value under setting [8] is 95%. For the same compound, the pEC50 is, setting by setting: under setting [9], 6.28; under setting [10], 6.06.
As to `Cc1ccc(N2C(=O)C3C(C2=O)C2(c4ccccc4)C(=O)C3(c3ccccc3)C(c3ccccc3)=C2c2ccccc2)cc1` (centres unmarked) [MMV666062], under setting [1], the “percent_inh @ 5 uM” value was 98%. In addition, the pEC50 runs as follows: under setting [2], 6.55; under setting [7], 6.06.
As for `COc1ccc(CNC2CCN(c3ccc(NC(=O)c4cccc(Cl)c4)cc3)CC2)cc1OC` [MMV666067], under setting [8], the “percent_inh @ 5 uM” value is recorded as 97%. The pEC50 under setting [9] is 6.18 and the pEC50 under setting [10] is 5.99.
Take `COc1ccc(CCN2CCC(CN(C)Cc3cnn(-c4ccccc4)c3)CC2)cc1` [MMV666069]: the “percent_inh @ 5 uM” value under setting [8] is reported as 96%. Also, the pEC50 by setting is: under setting [9], 5.84; under setting [10], 5.94.
For `O=C(NC1CCCC1)c1ccc(N2CCC(NCc3cccc(C(F)(F)F)c3)CC2)cc1` [MMV666070], the “percent_inh @ 5 uM” value under setting [8] was 93%. Besides, the pEC50 under setting [10] is 5.88.
Take `Cc1ccc(CN2CCC(C(=O)Nc3ccc(-c4cc5ccccc5[nH]4)cc3)CC2)o1` [MMV666071]: under setting [8], the “percent_inh @ 5 uM” value is 77%. Moreover, the pEC50 under setting [10] is 5.85.
Turning to `COCCNC(=O)c1ccc(OC2CCN(Cc3ccc(F)c(F)c3)CC2)c(Cl)c1` [MMV666072], the “percent_inh @ 5 uM” value under setting [1] is given as 91%. In addition, under setting [7], the pEC50 is 5.83.
On to `COc1ccc(C2N(C)c3ccccc3N2C)cc1` [MMV666075], for which the “percent_inh @ 5 uM” value under setting [8] was 62%. Further, under setting [10], the pEC50 was 4.82.
Consider `Cc1ccc2cc3c(N)c4c(C)ccc(C)c4nc3nc2c1` [MMV666079], for which the “percent_inh @ 5 uM” value under setting [5] is recorded as 98%. The pEC50 was 5.88 under setting [6] and 6.37 under setting [3].
As to `O=C(NC(c1ccccc1)c1ccc2cccnc2c1O)c1ccccc1` (centres unmarked) [MMV666080], the “percent_inh @ 5 uM” value under setting [8] is 95%. Besides, under setting [9], the pEC50 is 5.93.
As for `CCCc1c(C)nc2ccccc2c1O` [MMV666081], the “percent_inh @ 5 uM” value under setting [8] is given as 88%. Also, under setting [10], the pEC50 was 6.20.
As to `CCCC(c1nnnn1C1CCCCC1)N1CCN(C(=O)c2ccco2)CC1` (centres unmarked) [MMV666093], the “percent_inh @ 5 uM” value under setting [8] is on record as 82%. For the same compound, the pEC50 under setting [10] is 5.88.
Take `CCCc1c(C)nc2ccc(Br)cc2c1O` [MMV666095]: under setting [5], the “percent_inh @ 5 uM” value is 64%. Besides, the pEC50 was 5.92 under setting [6] and 5.82 under setting [3].
With `COc1ccc(C2=C(c3ccc(OC)cc3)C3(c4ccccc4)C(=O)C2(c2ccccc2)C2C(=O)N(c4ccc(C)cc4)C(=O)C23)cc1` (centres unmarked) [MMV666101], the “percent_inh @ 5 uM” value under setting [1] was 98%. In addition, the pEC50 was 6.83 under setting [2] and 4.90 under setting [3].
In the case of `CN(C)c1ccc(-c2nc3cc(N)ccc3[nH]2)cc1` [MMV666102], the “percent_inh @ 5 uM” value under setting [8] was 64%. For the same compound, the pEC50 under setting [10] was 6.62.
As to `CCn1c(SCC(=O)Nc2cc(C(F)(F)F)ccc2Cl)nc2ccccc2c1=O` [MMV666103], the “percent_inh @ 5 uM” value under setting [1] is recorded as 91%. The pEC50 is, setting by setting: under setting [2], 6.00; under setting [7], 6.40.
On to `COCCN(C(=O)Cc1cccs1)C(C(=O)NCc1ccc(OC)cc1)c1ccc(C(C)C)cc1` (centres unmarked) [MMV666105], for which the “percent_inh @ 5 uM” value under setting [1] is 92%. Also, the pEC50 is 5.92 under setting [2] and 6.07 under setting [7].
`O=C(NC1CCCCC1)C(c1cccs1)N(CCc1ccccc1)C(=O)c1ccco1` (centres unmarked) [MMV666106]: the pEC50 under setting [4] was 5.98.
Turning to `O=C(CCc1ccco1)NC1CCN(CC2(c3ccc(Cl)cc3)CCC2)CC1` [MMV666108], under setting [8], the “percent_inh @ 5 uM” value is recorded as 96%. Moreover, the pEC50 runs as follows: under setting [9], 5.94; under setting [10], 5.84.
Consider `CCOC(=O)C1(Cc2ccccc2)CCN(Cc2cccc(OC)c2O)CC1` [MMV666109], for which the “percent_inh @ 5 uM” value under setting [5] was 95%. Besides, under setting [11], the pEC50 was 5.64.
Regarding `C=C(C)CCC(C)N1CCC(N2CCC(C(=O)NCCc3ccccc3)CC2)CC1` (centres unmarked) [MMV666110], under setting [8], the “percent_inh @ 5 uM” value is on record as 96%. Further, the pEC50 under setting [9] was 5.76 and the pEC50 under setting [10] was 5.37.
Consider `Oc1ccccc1CN1CCC2(CCCN(Cc3ccccc3F)C2)C1` (centres unmarked) [MMV666116], for which, under setting [8], the “percent_inh @ 5 uM” value was 98%. In addition, the pEC50 is 6.26 under setting [9] and 6.17 under setting [10].
Turning to `CC(C)(C)c1ccc(C(=O)Nc2c3c(nn2-c2cccc(Cl)c2)CSC3)cc1` [MMV666123], the “percent_inh @ 5 uM” value under setting [5] is reported as 93%. Also, the pEC50 under setting [11] was 4.82.
Turning to `CC1=C(CC(=O)c2cccc([N+](=O)[O-])c2)C(=O)c2ccccc2C1=O` [MMV666125], the “percent_inh @ 5 uM” value under setting [5] is listed as 95%. The pEC50 is 6.42 under setting [6] and 5.55 under setting [3].
Turning to `CSC1=NC(=Nc2c(C)cccc2C)C2(CCC(C(C)(C)C)CC2)N1c1ccc(Cl)cc1` (centres unmarked) [MMV666596], the “percent_inh @ 5 uM” value under setting [1] is 96%. Also, the pEC50 by setting is: under setting [2], 6.87; under setting [3], 5.83.
In the case of `CCCCCCc1cc2cc(-c3nc4ccccc4[nH]3)c(=Nc3ccccc3C)oc2cc1O` [MMV666597], the pEC50 under setting [4] was 5.67.
`O=c1nc(C=Cc2ccc(Br)cc2)oc2ccccc12` [MMV666599]: the “percent_inh @ 5 uM” value under setting [5] is given as 94%. Moreover, the pEC50 under setting [7] is 5.98.
As for `CCOC(=O)c1c(C)n(-c2ccc(Cl)cc2)c2ccc(OC(=O)C=Cc3ccccc3)cc12` [MMV666600], under setting [1], the “percent_inh @ 5 uM” value is on record as 97%. For the same compound, the pEC50 under setting [2] was 6.67 and the pEC50 under setting [7] is 6.16.
`CCOC(=O)C1=C(c2ccccc2)N=c2sc(=Cc3cc(C)n(-c4ccc(F)cc4)c3C)c(=O)n2C1c1cccc(OC)c1OC` (centres unmarked) [MMV666601]: under setting [1], the “percent_inh @ 5 uM” value was 94%. The pEC50 by setting is: under setting [2], 6.81; under setting [3], 5.63.
As to `CCOC(=O)C1=C(C)N=c2sc(=Cc3ccccc3O)c(=O)n2C1c1ccc(OC)c2ccccc12` (centres unmarked) [MMV666604], the “percent_inh @ 5 uM” value under setting [5] was 97%. Moreover, the pEC50 runs as follows: under setting [6], 5.82; under setting [7], 5.90.
Consider `O=[N+]([O-])c1ccc(C=NNc2nc3ccccc3[nH]2)cc1` [MMV666607], for which the “percent_inh @ 5 uM” value under setting [1] is reported as 99%. In addition, the pEC50 is 6.85 under setting [2], 6.09 under setting [3] and 6.55 under setting [7].
Take `COc1ccccc1C(=O)ON=C(N)Cc1cccc2ccccc12` [MMV666686]: the pEC50 under setting [4] is 6.45.
`COc1cc(C(=O)ON=C(N)Cc2cccc3ccccc23)cc(OC)c1OC` [MMV666687]: under setting [4], the pEC50 is 6.55.
